Earlier results as cited in patent US20100192311A1, “METHOD FOR PERFUMING FABRICS” (priority 2009, published 2010).
Structures can show the parent of a compound that is named as a salt.

Key:
[1] = in water
[2] = system: typical Gram negative and positive bacteria, fungi and yeasts; conditions: level from about 0.001% to about 0.5% by weight of the usage composition

In the case of OCCOc1ccccc1 [2-phenoxyethanol], the water solubility [1] is given as “about 2.67%”.

For O=[N+]([O-])C1(Br)COCOC1 [Bronidox L, 5-bromo-5-nitro-1,3-dioxane], the water solubility [1] is listed as “about 0.46%”.

For CC1(C)C(=O)N(CO)C(=O)N1CO [DMDM hydantoin, 1,3-bis(hydroxymethyl)-5,5-dimethyl-2,4-imidazolidinedione], the water solubility [1] is given as “more than 50%”.

In the case of OCCc1ccccc1 [Phenyl Ethyl Alcohol, 2-phenylethanol], the water solubility [1] is listed as “about 2%”.

In the case of Cn1sc2c(c1=O)CCC2 [Promexal, 2-methyl-4,5-trimethylene-4-isothiazolin-3-one], the “effective against typical Gram negative and positive bacteria, fungi and yeasts” value [2] is given as “effective”.

For O=c1[nH]sc2ccccc12 [Proxel, 1,2-benzisothiazolin-3-one], the “effective against typical Gram negative and positive bacteria, fungi and yeasts” value [2] is listed as “effective”.

For OCc1ccccc1 [benzyl alcohol], the water solubility [1] is listed as “about 4%”.

In the case of [H]/N=C(\N/C(=N/[H])NCCCCCCNC(=N)NC(=N)Nc1ccc(Cl)cc1)Nc1ccc(Cl)cc1 [chlorhexidine diacetate salt, 1,1′-hexamethylene bis(5-(p-chlorophenyl)biguanide), reference compound], the water solubility [1] is given as “about 1.8%”.

In the case of [H]/N=C(\N/C(=N/[H])NCCCCCCNC(=N)NC(=N)Nc1ccc(Cl)cc1)Nc1ccc(Cl)cc1 [chlorhexidine digluconate salt, 1,1′-hexamethylene bis(5-(p-chlorophenyl)biguanide), reference compound], the water solubility [1] is given as “about 70%”.

For CC(C)(O)C(Cl)(Cl)Cl [chlorobutanol, 1,1,1-Trichloro-2-methylpropan-2-ol], the water solubility [1] is listed as “about 0.8%”.

For [Na+].[O-][n+]1ccccc1[S-] [sodium pyrithione], the water solubility [1] is listed as “about 50%”.
